# Experimental data published in patent US8058305B2, “Pyrrolidine derivatives as prostaglandin modulators” (Merck Serono SA, priority 2001, dated 2011).
# Assays:
# h-EP2 [1] = target: T1, h-EP2 (Homo sapiens, UniProt P43116); test: Prostaglandin EP2 receptor binding assay (3H-PGE2, SPA); conditions: EP2 receptor membranes, 20 nM 3H-PGE2, pH 6.0, 2 hrs at room temperature
# T1 construct: expressed in transfected cells; host or cells: HEK293-EBNA
# Description: Compounds of the invention were tested in an EP2 receptor binding assay of the following protocol. As referred to herein, the term a “standard EP2 receptor binding assay” designates the following protocol which allows the determination of the affinity of the test compounds for the EP2 receptor
# h-EP2 [2] = target: T1, h-EP2; test: EP2 total cAMP assay; type: cell-based; conditions: HEK293-EBNA cells transfected with pCEP4-hEP2, 1 hour at 37° C.
# Description: Compounds of the invention were tested in a total cAMP assay as follows. HEK293-EBNA cells transfected with pCEP4-hEP2 receptors were seeded in 96 well opaque plate (Costar #3917) at 4×10^4 cells per well in 100 μl of culture medium (D-MEM/F12 supplemented with 10% FBS, […] L-glutamine, and 250 μg/ml of hygromycin; all from GibcoBRL) and incubated at 37° C. After overnight incubation, the medium was removed from each well and replaced with 45 μl of assay medium consisted of phenol red free D-MEM/F-12, 0.1% BSA (GibcoBRL) and 0.1 mM3-isobutyl-1-methyl-xanthine (Sigma). After 15 minutes of incubation at 37° C., 16-16-dimethyl PGE-2 or compounds at desired concentrations in 20 μl of assay medium were added to cells and further incubated at 37° C. for 1 hour. Total cAMP (intra- and extra-cellular) was measured by using a cAMP-screen ELISA System (Tropix, #CS1000).
# h-EP4 = h-EP4 (Homo sapiens, UniProt P35408); test: EP4 receptor binding assay (3H-PGE2, SPA); conditions: EP4 receptor membranes, 20 nM 3H-PGE2, pH 6.0, 2 hrs at room temperature
# h-EP4, sequence (P35408 whole entry): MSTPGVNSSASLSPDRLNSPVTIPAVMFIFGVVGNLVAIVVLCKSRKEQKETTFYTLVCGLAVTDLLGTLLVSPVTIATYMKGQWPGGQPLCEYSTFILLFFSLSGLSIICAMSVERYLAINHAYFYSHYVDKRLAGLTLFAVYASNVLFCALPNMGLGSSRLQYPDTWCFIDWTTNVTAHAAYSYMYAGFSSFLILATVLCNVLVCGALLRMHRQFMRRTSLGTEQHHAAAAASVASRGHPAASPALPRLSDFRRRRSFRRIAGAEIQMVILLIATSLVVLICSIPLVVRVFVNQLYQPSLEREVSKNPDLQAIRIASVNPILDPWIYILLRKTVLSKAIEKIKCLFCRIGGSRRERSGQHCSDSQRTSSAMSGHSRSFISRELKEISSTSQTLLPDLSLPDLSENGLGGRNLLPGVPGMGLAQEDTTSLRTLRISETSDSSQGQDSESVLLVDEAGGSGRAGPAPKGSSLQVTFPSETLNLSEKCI
# Description: Compounds of the invention were tested in an EP4 receptor binding assay of the following protocol which allows the determination of the affinity of the test compounds for the EP4 receptor.
# T1 sequence (P43116 whole entry): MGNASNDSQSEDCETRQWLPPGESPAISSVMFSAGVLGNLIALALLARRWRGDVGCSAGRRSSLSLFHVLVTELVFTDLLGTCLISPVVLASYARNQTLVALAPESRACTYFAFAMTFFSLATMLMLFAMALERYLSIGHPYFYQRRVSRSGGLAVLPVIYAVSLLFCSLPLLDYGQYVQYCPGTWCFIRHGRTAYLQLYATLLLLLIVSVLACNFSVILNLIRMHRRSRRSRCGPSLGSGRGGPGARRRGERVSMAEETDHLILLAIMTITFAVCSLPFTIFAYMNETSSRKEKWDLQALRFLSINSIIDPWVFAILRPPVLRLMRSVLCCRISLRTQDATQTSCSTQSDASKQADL
Molecule,Ki (h-EP2 [1]) [µM],EC50 (h-EP2 [2]) [µM],Ki (h-EP4) [µM]
"CCCCC1(C(O)CCCN2CC[C@@H](Cl)[C@@H]2CCc2ccc(C(=O)O)cc2)CCC1 (stereo in doubt) [Example 11, 4-(2-{1-[4-(1-butylcyclobutyl)-4-hydroxybutyl]-3-chloropyrrolidin-2-yl}ethyl)benzoic acid]",3.5,0.25,
"CCCCC[C@@H](O)CCCN1CC[C@@H](Cl)C1C/C=C\CCCC(=O)O (stereo in doubt) [Example 1, (5Z)7-[(2R,3R)-3-Chloro-1-(4-hydroxynonyl)-pyrrolidin-2-yl]-hept-5-enoic acid]",5.6,0.048,
"Cc1cccc(CC(O)CCN2CCC(=O)[C@@H]2C/C=C\CCCC(=O)O)c1 (stereo partly drawn) [Example 13, (5Z)-7-{(2S)-1-[3-hydroxy-4-(3-methylphenyl)butyl]-3-oxopyrrolidin-2-yl}hept-5-enoic acid]",10,0.37,0.005
"(5Z)-7-{(trans-2,3)-3-Chloro-1-[(4S and 4 R)-hydroxy-4-(1-butylcyclobutyl)butyl]pyrrolidin-2-yl}hept-5-enoic acid [Example 15]",11,8.5,0.156
